The source of these data is ChEMBL document CHEMBL4725338, “Discovery of novel histone lysine methyltransferase G9a/GLP (EHMT2/1) inhibitors: Design, synthesis, and structure-activity relationships of 2,4-diamino-6-methylpyrimidines” (Bioorg Med Chem Lett, 2020).

A short description of series [1]: Metabolic stability in human liver microsomes assessed as compound remaining at 0.5 mg/mL incubated for 0.5 hrs. It counts as ADME, Microsome. The conditions noted are these: read-out: Stabilty.
A short description of series [2]: Oral bioavailability in mouse at 10 mg/kg. Type of series: ADME, organism-based. The settings on record: in vivo.
A short description of series [3]: AUC (0 to infinity) in mouse at 10 mg/kg, po. It counts as ADME, organism-based. The arrangement: time infinity, route oral, dose 10 mg/kg. The settings on record: in vivo.
Series [4] in a line: Aqueous solubility of the compound in pH 6.8 JP2 fluid. It counts as physicochemical.
Series [5] in a line: Apparent permeability in MDCK cells. Type of series: ADME, cell-based, Canis lupus familiaris. The settings on record: dog.
Series [6] can be described thus: Cmax in mouse at 10 mg/kg, po. The arrangement: route oral, dose 10 mg/kg. Type of series: ADME, organism-based. The conditions noted are these: in vivo.
Series [7] concerns the target T1, CYP3A4 (Homo sapiens, UniProt P08684). The series can be described thus: Mechanism based inhibition of CYP3A4 in human liver microsome assessed as remaining percentage at 100 uM in presence of substrate ACN preincubated 30 mins followed by substrate addition relative to control. The conditions noted are these: liver microsomes, probe ACN (so in the source), read-out: Activity. Type of series: ADME. On the technique in general: Liver microsomes are vesicles of endoplasmic reticulum, rich in cytochrome P450 enzymes.

The target in series [8] is T1, CYP3A4. The series is described as follows: Inhibition of CYP3A4 (unknown origin) at 10 uM relative to control. Type of series: ADME.
Series [9] can be described thus: Metabolic stability in monkey liver microsomes assessed as compound remaining at 0.5 mg/mL incubated for 0.5 hrs. It counts as ADME, Macaca mulatta, Microsome. The conditions noted are these: rhesus monkey, read-out: Stabilty.
Series [10] can be described thus: Aqueous solubility of the compound in pH 1.2 JP1 fluid. Type of series: physicochemical.
Series [11] addresses T2, CYP1A2 (Homo sapiens, UniProt P05177).
T2 sequence (P05177 whole entry): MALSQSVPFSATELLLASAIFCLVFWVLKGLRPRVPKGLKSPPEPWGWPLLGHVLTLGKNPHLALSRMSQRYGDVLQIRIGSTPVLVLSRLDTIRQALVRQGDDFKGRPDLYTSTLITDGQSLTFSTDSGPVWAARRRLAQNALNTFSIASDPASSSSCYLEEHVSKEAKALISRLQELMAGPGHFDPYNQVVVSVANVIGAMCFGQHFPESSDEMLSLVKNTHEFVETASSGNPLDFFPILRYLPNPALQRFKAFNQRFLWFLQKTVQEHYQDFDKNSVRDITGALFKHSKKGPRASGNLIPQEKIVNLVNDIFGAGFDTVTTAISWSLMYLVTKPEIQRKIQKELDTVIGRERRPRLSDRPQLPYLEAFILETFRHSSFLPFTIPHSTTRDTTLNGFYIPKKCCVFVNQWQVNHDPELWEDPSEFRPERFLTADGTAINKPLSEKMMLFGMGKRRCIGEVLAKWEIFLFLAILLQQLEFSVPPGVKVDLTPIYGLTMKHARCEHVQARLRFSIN
The series can be described thus: Inhibition of CYP1A2 (unknown origin) at 10 uM relative to control. It counts as ADME.

For series [12], the system named is CD34-positive (myeloid/lymphoid) cell. The series is described as follows: Induction of fetal globin in human CD34+ cells assessed as switching of mRAN expression from adult beta-globin to fetal type gamma globin at 0.3 to 1 uM by qRT-PCR analysis. Type of series: functional, cell-based. A general note: Real-time PCR tracks product formation cycle by cycle.
The nature of series [13]: Initial plasma concentration in mouse at 1 mg/kg, iv. It counts as ADME, organism-based.
For series [14], the target named is T3, CYP2C8 (Homo sapiens, UniProt P10632).
T3 sequence (P10632 whole entry): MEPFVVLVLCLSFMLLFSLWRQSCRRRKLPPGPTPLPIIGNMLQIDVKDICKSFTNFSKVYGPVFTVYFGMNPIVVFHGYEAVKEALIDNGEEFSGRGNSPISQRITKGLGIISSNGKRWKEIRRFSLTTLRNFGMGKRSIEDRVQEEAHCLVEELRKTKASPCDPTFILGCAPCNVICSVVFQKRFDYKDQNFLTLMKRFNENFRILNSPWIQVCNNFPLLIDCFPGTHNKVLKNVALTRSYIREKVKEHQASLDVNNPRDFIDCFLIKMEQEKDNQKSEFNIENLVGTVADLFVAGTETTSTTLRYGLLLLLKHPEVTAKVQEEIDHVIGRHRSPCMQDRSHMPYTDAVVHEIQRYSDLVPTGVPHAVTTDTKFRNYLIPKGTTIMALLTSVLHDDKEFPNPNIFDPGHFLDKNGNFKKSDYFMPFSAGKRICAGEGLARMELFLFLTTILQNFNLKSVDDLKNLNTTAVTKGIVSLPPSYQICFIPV
The series is described as follows: Inhibition of CYP2C8 (unknown origin) at 10 uM relative to control. Type of series: ADME.

In brackets after ≈: the same amount, converted by molar mass. Activity calls are given as the source filed them. The rule behind the calls is not given here.

T1 sequence (P08684 whole entry): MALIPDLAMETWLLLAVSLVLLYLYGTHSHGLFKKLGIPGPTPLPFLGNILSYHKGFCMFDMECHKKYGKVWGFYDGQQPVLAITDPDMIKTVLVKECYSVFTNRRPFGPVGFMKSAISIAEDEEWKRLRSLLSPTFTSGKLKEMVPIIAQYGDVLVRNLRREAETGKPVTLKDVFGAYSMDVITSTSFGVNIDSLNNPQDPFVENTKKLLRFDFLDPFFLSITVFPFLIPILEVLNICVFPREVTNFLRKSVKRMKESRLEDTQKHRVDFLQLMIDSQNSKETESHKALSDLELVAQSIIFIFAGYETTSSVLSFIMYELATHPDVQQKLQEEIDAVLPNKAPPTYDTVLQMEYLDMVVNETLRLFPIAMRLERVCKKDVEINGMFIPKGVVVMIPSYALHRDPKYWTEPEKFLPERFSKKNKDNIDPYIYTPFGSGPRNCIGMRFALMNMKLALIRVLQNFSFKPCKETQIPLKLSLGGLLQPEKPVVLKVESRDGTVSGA

Turning to `CNc1cc(C)nc(Nc2ccc(OC)c(C3=CCNCCC3)c2)n1`, the values for the remaining at 0.5 h in series [1] and in series [9] were 96% and 24%, respectively. Besides, the bioavailability – broadly, the share of a dose that reaches the circulation, judged against a reference dose that is usually intravenous – in series [2] was found to be 40%. Further, the AUC(0-inf) (in general, the area under the concentration-time curve extrapolated to infinity) in series [3] worked out at 3.15 µM·h. Besides, the solubility (commonly the concentration that dissolves in the medium under given conditions) in [4] stood at 640 µg/mL (≈ 1890 µM); in series [10] it was 680 µg/mL (≈ 2000 µM). Also, in [5], the Papp (usually the rate of passage across a membrane or cell layer, normalised by area and donor concentration) was 1.4 ×10⁻⁶ cm/s. In addition, the Cmax (usually the peak of the concentration-time curve) in series [6] turned out to be 450 nM. Besides, in series [7], the activity at 30 min, 100 µM amounted to 80.5%. In addition, the inhibition at 10 µM in [8], in series [11] and in [14] was 0% throughout. The Activity result in [12] was “Active”. The compound further gave a C0 in series [13] of 400 nM.

Consider `CNc1cc(C)nc(Nc2ccc(OC)c(OCCCN3CCCC3)c2)n1`, for which the remaining at 0.5 h in series [1] was found to be 99%; in series [9], 8%. Also, in series [2], the bioavailability turned out to be 17%. The AUC(0-inf) in series [3] was 2.86 µM·h. For the same compound, the solubility in series [4] was 590 µg/mL (≈ 1590 µM); in series [10] it was 740 µg/mL (≈ 1990 µM). Further, the Papp in series [5] is 3.1 ×10⁻⁶ cm/s. Besides, the Cmax in series [6] was 220 nM. The activity at 30 min, 100 µM in series [7] was 93.6%. Further, the inhibition (commonly the share of the control response that was lost under treatment) at 10 µM amounted to 8% in [8], 5% in series [11] and 2% in [14]. Further, the Activity entry in series [12] is “Active”. Also, the C0 in [13] was determined as 260 nM.
